Test system: Adult patients with moderate to severe chronic atopic dermatitis
Experiment: Randomised, double-blind, placebo-controlled study of oral L-histidine in atopic dermatitis (SCORAD, POEM, TEWL)
Type: in vivo, human
Method: A randomised, double-blind, placebo-controlled study was conducted as follows: Adult (i.e. greater than 18 years of age) patients with moderate to severe chronic atopic dermatitis were recruited to the study from patients and diagnosis of atopic dermatitis confirmed using the UK Working Party's Diagnostic criteria (see Williams et al, Br. J. Dermatol. 1994; 131:383-96). Exclusion criteria were: patients aged less than 18 years, pregnancy or lactation, liver disease, exposure to natural or artificial ultra-violet radiation, immunosuppression due to disease or medication and Chinese herbal medicine in the 3 months preceding the study. Patients were asked to cease potent topical steroid use during the study. Disease severity was quantified by a research nurse using the well established SCORAD system (see Schmitt et al, European Dermato-Epidemiology Network, J. Allergy Clin. Immunol., 2007; 120:1389-98) and self assessed by the patients using POEM (Patient-Oriented Eczema Measure; see […] et al, J. Arch. Dermatol. 2004; 140-1513-9). Skin barrier function was assessed using a Vapometer® which quantifies Trans Epidermal Water Loss (TEWL; see Fluhr et al, Exp. Dermatol., 2006; 15:483-92). Atopic dermatitis patients were randomised into each of 2 groups and after a 'washout' period of 2 weeks and received either 4.0 g of powder L-histidine or 4.0 g of placebo (the naturally occurring food sweetener, erythritol) powder daily for 4 weeks. The patients were instructed to dissolve either the L-histidine or placebo powder in fruit juice. Neither the patient nor the clinical staff was aware of the identity of treatments administered.

[1] = 4.0 g daily oral for 4 weeks, n=4

N[C@@H](Cc1c[nH]cn1)C(=O)O [L-Histidine, 2-amino-3-(3H-imidazol-4-yl)propanoic acid]
POEM % change after 4 wks [1]: −25% | SCORAD % change after 4 wks [1]: −22% | SCORAD after 4 wks [1]: 25 | TEWL % change after 4 wks [1]: −50% | reduction of clinician-scored disease activity (SCORAD) (4 weeks of 4.0 g daily): 22% | reduction of patient-scored disease activity (4 weeks of 4.0 g daily): 25% | reduction of transepidermal water loss (TEWL) (4 weeks of 4.0 g daily): 50% | TEWL after 4 wks (Vapometer, 4.0 g daily oral for 4 weeks, n=4): 8 | SCORAD before (baseline before treatment, 4.0 g daily oral group, n=4): 37 | TEWL before (baseline before treatment, Vapometer, 4.0 g daily oral group, n=4): 16 | POEM before (baseline before treatment, patient self-assessed, 4.0 g daily oral group, n=4): 20 | POEM after 4 wks (patient self-assessed, 4.0 g daily oral for 4 weeks, n=4): 15
